According to patent US11013740B2, “Histone deacetylase 6 selective inhibitors for the treatment of cisplatin-induced peripheral neuropathy” (REGENACY PHARMACEUTICALS, LLC, priority 2015, dated 2021):

Experiments:
[1] = test system: cisplatin-induced mechanical hyperalgesia; assay: Von Frey test for mechanical hyperalgesia in cisplatin-treated mice; type: in vivo; details: for effect on existing cisplatin-induced mechanical hyperalgesia: 7 daily doses starting 3 days after last cisplatin dose
Method: Adult male C57/Bl6J mice received cisplatin intraperitoneally (i.p.) (2.3 mg/kg) daily for five days, followed by five days rest and a second round of five days of cisplatin treatment. Three days after the last dose of cisplatin, mice received the HDAC6 inhibitor, compound 001, a compound of Formula (I), i.p. for seven to fourteen days at 3 mg/kg or 10 mg/kg.
(§1) To quantify signs of cisplatin-induced pain, the von Frey test was used (see below) which measures the decrease in threshold to induce a withdrawal response to a mechanical stimulus (hyperalgesia, one of the characteristics of CIPN). To assess cisplatin-induced numbness, the adhesive removal test (ART) was used. The time it took for the mouse to have a behavioral response to the patch (i.e. shaking or attempted removal) was recorded as a measure of sensory deficit or numbness. To determine if behavioral changes were due to altered general activity or motor function, the locomotor activity (LMA) test and the rotarod test was used. For LMA mice were placed in an open-field testing cage and movement was measured for 5 minutes. For the rotarod, mice were trained for two days and then tested on the rotarod (with increasing speeds) for 5 minutes. Time on the rotarod was recorded.
Allodynic response to tactile stimulation is assessed using the Von Frey apparatus (Touch Test®).
The animal is placed in an enclosure and positioned on a metal mesh surface, but allowed to move freely. The animals' cabins are covered with red cellophane to diminish environmental disturbances. The test begins after a cessation of exploratory behavior. The set of Von Frey monofilaments provide an approximate logarithmic scale of actual force and a linear scale of perceived intensity.
The operating principle: when the tip of a fiber of given length and diameter is pressed against the skin at right angles, the force of application increases as long as the researcher continues to advance the probe until the fiber bends. After the fiber bends, the probe continues to advance, causing the fiber to bend more, but without additional force being applied.
The Touch Test™ Sensory Evaluator can be used on the plantar surfaces of the rat's foot. The animal indicates sensation by pulling back its paw. The minimal force needed to elevate the withdrawal reflex is considered/designated as the value of reference. In order to achieve paw withdrawal, the pressure applied is sometimes greater than 60 g, often requiring the researcher to apply enough pressure with the Von Frey filament to actually lift the paw of the naive animal. Decreases in force needed to induce withdrawal are indicative of hyperalgesia, as the force applied is a non-painful stimulus under normal conditions.
Cisplatin (TEVA Pharmaceuticals, North Wales, Pa.) was diluted in sterile saline and administered intraperitoneally (i.p.) at a dose of 2.3 mg/kg daily for 5 days, followed by 5 days of rest, and a second round of 5 doses for a total cumulative dose of 23 mg/kg cisplatin. It was shown that this dosing schedule induces mechanical hyperalgesia in mice (Qi-Liang Mao-Ying A K, et al. The anti-diabetic drug metformin protects against chemotherapy-induced peripheral neuropathy in a mouse model. Clinical Cancer Research. 2014; Krukowski K, et al. Prevention of chemotherapy-induced peripheral neuropathy by the small-molecule inhibitor pifithrin-mu. Pain. 2015; 156(11):2184-92). HDAC6 inhibitor, compound 001, (Acetylon Pharmaceuticals, Boston, Mass.) was dissolved in 20% 2-hydroxypropyl-β-cyclodextrin+0.5% hydroxypropyl methylcellulose (Sigma-Aldrich, St. Louis, Mo.) in water and administered i.p. at a dose of 10 mg/kg or 3 mg/kg. […]

[2] = test system: cisplatin-induced numbness; assay: Adhesive removal test (ART) for numbness; type: in vivo, mice; details: treatment starting after two rounds of cisplatin; tested in week 5
Method: as §1, with “recorded. […] The time it took for the mouse to display a behavioral response to the patch (i.e. shaking or attempted removal) was recorded. […]” for “recorded.”

[3] = test system: general activity; assay: Locomotor activity (LMA) test; type: in vivo, mice; details: in combination with cisplatin
Method: as §1

[4] = test system: Cox IV, SDHA and VDAC; assay: Western blot of mitochondrial marker proteins in tibial nerves; type: in vivo; details: cisplatin-treated mice, 11 injections of compound
Method: Tibial nerves retrieved from the XF24 assay plate were used for western blot analysis of levels of acetylated α-tubulin and mitochondrial proteins cytochrome c oxidase subunit IV (Cox IV), succinate dehydrogenase complex subunit A (SDHA) and voltage-dependent anion channel (VDAC). Tissues were homogenized in RIPA buffer (50 mM Tris-HCl, pH 7.5, 500 mM NaCl, 2.5 mM MgCl2, 1% NP-40, 10% glycerol) containing proteinase inhibitors by sonication and 10 μg of protein was separated by SDS/PAGE and transferred to PVDF membrane for immunoblot analyses. The membranes were blocked with 5% non-fat dry milk in PBST (phosphate-buffered saline containing 0.1% Tween 20) and probed with primary antibodies recognizing acetylated lysine (Rabbit monoclonal; Abcam, Cambridge, United Kingdom), α-tubulin (Rabbit polyclonal; Cell Signaling Technology, Danvers, Mass.), Cox IV (Mouse monoclonal; Life Technologies, Carlsbad, Calif.), SDHA (Rabbit polyclonal; Cell Signaling Technology, Danvers, Mass.) and VDAC (Rabbit polyclonal; Cell Signaling Technology, Danvers, Mass.) followed by HRP-conjugated anti-mouse, anti-rabbit, or anti-β-actin antibodies (Jackson Laboratory, Bar Harbor, Me.). […] The images were acquired using ImageQuant LAS 4000 (GE Healthcare Life Sciences, Little Chalfont, United Kingdom) and densitometrically analyzed using Image J software.

With O=C(NO)c1cnc(NC2(c3ccccc3)CCC(F)(F)CC2)nc1 [compound 001] the “effect on existing cisplatin-induced mechanical hyperalgesia” value ([1]; 3 mg/kg i.p.) was “did not”, the “effect of prolonged treatment on mechanical hyperalgesia” value ([1]; 10 mg/kg for two consecutive weeks starting 3 days after last cisplatin dose) was “complete and sustained recovery from mechanical hyperalgesia” and the “duration of beneficial effect of prolonged regimen” value ([1]; 10 mg/kg for two consecutive weeks, followed to experiment termination) was “maintained until at least one month after the last dose”. For the same molecule, the “effect on existing cisplatin-induced mechanical hyperalgesia” value ([1]; 10 mg/kg i.p.) was “effectively relieved cisplatin-induced mechanical hyperalgesia”, the “time after first dose at which effect on mechanical allodynia was first detected” value ([1]; 10 mg/kg i.p., cisplatin-treated mice) was 24 h and the “mechanical sensitivity, compound alone” value ([1]; 10 mg/kg, without cisplatin) was “did not alter mechanical sensitivity”. The “time after last dose until which beneficial effect on mechanical hyperalgesia was maintained” value ([1]; 7 daily doses of 10 mg/kg) was 4 days, the “prevention of development of mechanical hyperalgesia” value ([1]; administered i.p. one hour prior to each dose of cisplatin) was “prevented the development of mechanical hyperalgesia” and the “effect of second round of treatment on mechanical hyperalgesia” value ([1]; second round of 7 daily injections, 10 mg/kg, after 7 days rest) was “transiently reversed cisplatin-induced mechanical hyperalgesia”. The “time to behavioral response to adhesive patch (numbness)” value [2] was “normalized the response time in this test”, the “general activity (locomotor activity)” value [3] was “no effect on general activity” and the “Cox IV level in tibial nerve” value [4] was “normalized Cox IV levels in the tibial nerve”.
